Patent US6011037A, “Thiazole derivatives with phosphodiesterase-inhibiting action” (Byk Gulden Lomberg Chemische Fabrik GmbH, priority 1996, dated 2000)
Structures can show the parent of a compound that is named as a salt.

Tested on: PDE IV
Test: Inhibition of the PDE IV activity (method of Bauer and Schwabe, adapted to microtiter plates)
Assay type: biochemical

Structure (SMILES) | -log IC50
COc1ccc(-c2nc(-c3cccnc3)cs2)c2c1OC1(CCCC1)C2 [Compound 1, 3-[2-(2,3-Dihydro-7-methoxybenzofuran-2-spiro-1'-cyclopentan-4-yl)thiazol-4-yl]pyridine] | 7.75
COc1ccc(-c2nc(-c3ccncc3)cs2)c2c1OC1(CCCC1)C2 [Compound 2, 4-[2-(2,3-Dihydro-7-methoxybenzofuran-2-spiro-1'-cyclopentan-4-yl)thiazol-4-yl]pyridinehydrobromide] | 7.09
